Some test systems named below: HCT-116 colon; SF-539 CNS; DU-145 prostate; U251 CNS; NCI-H226 lung; SK-OV-3 ovarian; A549 NSCLC; TK-10 renal; NCI/ADR-RES ovarian; UACC-62 melanoma.
Common to all, as to assay: NCI-60 cell line screen, 48 h

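How tested: cells in 96-well plates exposed to compound for 48 hours at five concentrations. GI50 marks 50% less growth. At the TGI there is no net growth.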

In the case of `O=C(Nc1nnc(-c2ccccc2)o1)C(SC(=S)N1CCOCC1)c1ccccc1` (centres undefined), the TGI in the assay with HCT-116 colon, in the assay with SF-539 CNS, in the assay on DU-145 prostate, with U251 CNS, with NCI-H226 lung and in the assay on SK-OV-3 ovarian was > 100 µM throughout. The TGI in the assay on A549 NSCLC was > 100 µM; in the assay with TK-10 renal, > 100 µM; with NCI/ADR-RES ovarian it was 64.7 µM.
As to `C=CCN(c1cc(OCc2ccccc2)c(NC(C)=O)cc1[N+](=O)[O-])S(C)(=O)=O`, the TGI with HCT-116 colon was > 100 µM; in the assay with SF-539 CNS it was 31.8 µM; in the assay with DU-145 prostate, > 100 µM; in the assay with NCI-H226 lung it was 25.2 µM; in the assay with SK-OV-3 ovarian, 38.7 µM; with A549 NSCLC, > 100 µM. Also, the TGI in the assay with UACC-62 melanoma, with TK-10 renal and in the assay on NCI/ADR-RES ovarian was > 100 µM each time.
`NS(=O)(=O)c1ccc(Nc2c3ccccc3nc3c(C(=O)NCCCN(CCO)CCO)cccc23)cc1`: the TGI was > 100 µM in the assay on DU-145 prostate; 31.7 µM in the assay on U251 CNS; > 100 µM in the assay on SK-OV-3 ovarian; 69.2 µM in the assay with A549 NSCLC; 57.8 µM in the assay on UACC-62 melanoma; > 100 µM in the assay with TK-10 renal. Further, the TGI in the assay with NCI/ADR-RES ovarian was > 100 µM.
In the case of `C1#Cc2ccccc2OCCOc2ccccc2C#Cc2ccccc2OCCOc2ccccc21`, the TGI in the assay on HCT-116 colon was > 100 µM; in the assay with DU-145 prostate, > 100 µM; in the assay with U251 CNS, 28.1 µM; with NCI-H226 lung it was 38.3 µM; in the assay on A549 NSCLC, > 100 µM; with UACC-62 melanoma, > 100 µM. Also, the TGI with TK-10 renal and in the assay with NCI/ADR-RES ovarian was > 100 µM each time.
Consider `CC(=O)NC1C(OCc2ccccc2)OC(CO)C(O)C1OCC(=O)NC(C)C(=O)NC(CCC(=O)NCCCCCNc1c2ccccc2nc2cccc([N+](=O)[O-])c12)C(N)=O` (centres undefined), for which the TGI in the assay on HCT-116 colon was < 0.0001 µM; in the assay with SF-539 CNS, 0.00116 µM; in the assay with U251 CNS it was < 0.0001 µM; in the assay with NCI-H226 lung it was 0.00254 µM; in the assay on A549 NSCLC, 0.00142 µM; with TK-10 renal, 1.54 µM. Moreover, in the assay with TK-10 renal, the GI50 was < 0.0001 µM.
Regarding `O=C1CCC2(CC1CCSc1ccccc1)OCCO2` (centres undefined), the TGI in the assay on SF-539 CNS, in the assay on DU-145 prostate, in the assay on U251 CNS, with NCI-H226 lung, with SK-OV-3 ovarian and with A549 NSCLC was > 100 µM in each case. In addition, the TGI in the assay with UACC-62 melanoma, in the assay with TK-10 renal and with NCI/ADR-RES ovarian was > 100 µM in each case.
For the compound `Cc1cn(CC2=NCCCN2)c(=O)[nH]c1=O`, the TGI in the assay on HCT-116 colon, with DU-145 prostate, in the assay on U251 CNS, with NCI-H226 lung, in the assay with SK-OV-3 ovarian and in the assay on A549 NSCLC was > 100 µM throughout. Also, the TGI in the assay on UACC-62 melanoma, in the assay with TK-10 renal and in the assay on NCI/ADR-RES ovarian was > 100 µM throughout.
In the case of `CC(=NCCN(CCN=C(C)c1c(O)cc(C)oc1=O)CCN=C(C)c1c(O)cc(C)oc1=O)c1c(O)cc(C)oc1=O`, the TGI with HCT-116 colon, in the assay with SF-539 CNS, in the assay on U251 CNS, in the assay with SK-OV-3 ovarian, with A549 NSCLC and in the assay on TK-10 renal was > 100 µM each time. The TGI in the assay on NCI/ADR-RES ovarian was > 100 µM.
As for `CC(=Nc1c2ccccc2nc2ccccc12)N(C)C`, the TGI in the assay on HCT-116 colon is 27.6 µM; with DU-145 prostate, > 100 µM; with U251 CNS, 72 µM; in the assay on NCI-H226 lung, 45.7 µM; with SK-OV-3 ovarian it was > 100 µM; with A549 NSCLC, > 100 µM. The values for the TGI in the assay on UACC-62 melanoma, in the assay on TK-10 renal and in the assay on NCI/ADR-RES ovarian were 32.9 µM, > 100 µM and 54.8 µM, respectively.
As to `NCCNCCCCCCNC(=O)c1cccc2cc3ccccc3nc12`, the TGI in the assay with HCT-116 colon turned out to be 6.33 µM; in the assay on SF-539 CNS, 3.88 µM; in the assay with DU-145 prostate, 2.92 µM; with U251 CNS, 4.15 µM; with NCI-H226 lung, 5.02 µM; in the assay on A549 NSCLC, 5.63 µM. The TGI with UACC-62 melanoma amounted to 4.64 µM; with TK-10 renal it was 20.8 µM; in the assay on NCI/ADR-RES ovarian it was 38.4 µM.
For `O=C1C=C2CO[C@H]3OC[C@H](O)[C@@H]1[C@@H]23`, the TGI with HCT-116 colon is > 100 µM; in the assay on DU-145 prostate, > 100 µM; in the assay on U251 CNS, 63.6 µM; in the assay on SK-OV-3 ovarian, > 100 µM; in the assay on A549 NSCLC, > 100 µM; in the assay on UACC-62 melanoma it was > 100 µM. Also, the TGI in the assay with TK-10 renal and in the assay with NCI/ADR-RES ovarian was > 100 µM in each case.
Turning to `COc1cccc2c1C1(O)C2CCCC12OCCCO2` (centres undefined), the TGI in the assay with HCT-116 colon, in the assay with SF-539 CNS, with U251 CNS, with NCI-H226 lung, in the assay on SK-OV-3 ovarian and with A549 NSCLC was > 100 µM throughout. In addition, the TGI with UACC-62 melanoma and in the assay with TK-10 renal was > 100 µM throughout.
On to `CC(=O)NC1=C(C)C(=O)c2c(nc3n2CCC3O)C1=O` (centres undefined), for which the TGI in the assay with HCT-116 colon is 67.7 µM; in the assay on SF-539 CNS, 51.3 µM; in the assay on U251 CNS it was > 100 µM; in the assay with NCI-H226 lung, 63.4 µM; in the assay with SK-OV-3 ovarian, > 100 µM; in the assay on A549 NSCLC it was > 100 µM. Besides, the values for the TGI in the assay with UACC-62 melanoma and with TK-10 renal were 38.2 µM and > 100 µM, respectively.
Take `CC1CCc2c(sc3ncnc(N/N=C/c4ccc(Cl)c(Cl)c4)c23)C1` (centres undefined): the TGI with HCT-116 colon is > 100 µM; with SF-539 CNS, 60.6 µM; in the assay on U251 CNS, 20 µM; in the assay on NCI-H226 lung, 49.4 µM; in the assay with SK-OV-3 ovarian, 89.6 µM; in the assay on A549 NSCLC, 34.4 µM. Also, the values for the TGI in the assay with UACC-62 melanoma and in the assay on TK-10 renal were 64.5 µM and > 100 µM, respectively.
For `O=C1CSC2=NCC3(NN12)c1ccccc1-c1ccccc13`, the TGI in the assay with HCT-116 colon, in the assay with SF-539 CNS, with DU-145 prostate, with NCI-H226 lung, with SK-OV-3 ovarian and with A549 NSCLC was > 10 µM each time. In addition, the TGI in the assay with UACC-62 melanoma, in the assay with TK-10 renal and with NCI/ADR-RES ovarian was > 10 µM throughout.

The record behind these values is PubChem BioAssay (NCI).
